Assay results from article PMC6716272, “In Vivo and In Vitro Analyses of Novel Peptidomimetic Disruptors for the Serotonin 5-HT2C Receptor Interaction With Phosphatase and Tensin Homolog” (Frontiers in Pharmacology, 2019).

How the values were obtained:
[1] = system: cocaine–saline-trained rats; assay: Two-lever drug discrimination, cocaine (5 mg/kg) vs saline; format: in vivo, rat; details: for cocaine-lever responding in substitution test / response rate in substitution test: SB242084 0.5 mg/kg; for cocaine-lever responding in substitution test: cocaine 2.5 mg/kg, i.p.; for cocaine-lever responding, pretreatment before cocaine (2.5 mg/kg): lorcaserin 1 mg/kg (30 min) or SB242084 0.5 mg/kg (45 min) before test
Protocol: (§1) Experimentally naïve male Sprague-Dawley rats (n = 43; Envigo, Inc.) weighing 300–325 g at the beginning of the experiment were housed two per cage in a temperature- (21–23°C) and humidity- (45–50%) controlled environment; lighting was maintained under a 12-h light–dark cycle (0700–1900 h). Rats were maintained at 80–90% of their free-feeding weights by restricting access to water. Rats received water during daily training sessions (5–6 ml/rat/session), in the afternoon several hours after training (20 min), and over the weekend (36 h). Experiments were conducted during the light phase of the light–dark cycle (between 0900 and 1200 h) and were carried out in accordance with the National Institutes of Health Guide for the Care and Use of Laboratory Animals and with the approval of the Institutional Animal Care and Use Committee at University of Texas Medical Branch.
(§2) The procedures were conducted in commercially available two-lever operant chambers (Med Associates, St. Albans, VT). Each chamber was equipped with a water-filled dispenser mounted equidistantly between two retractable response levers on the wall and housed in a light- and soundproof cubicle. Illumination came from a 28-V house light; ventilation and masking noise were provided by a ventilation fan in the right-side wall. A computer with Med-PC IV software was used to run programs and record all experimental events.
(§3) Standard two-lever, water-reinforced drug discrimination procedures were used ([Appel and Cunningham, 1986]; [Callahan and Cunningham, 1995]; [Colpaert, 1999]). Three cohorts (n = 13–16/cohort) were trained to discriminate an injection of a training drug from saline (1.0 ml/kg, i.p.) administered 15 min before start of daily (Monday–Friday) training sessions. In one cohort (n = 14), rats were trained to discriminate the training drug lorcaserin (0.75 mg/kg, 1.0 ml/kg, i.p.) from saline. In a second cohort (n = 13), rats were trained to discriminate the training drug WAY163909 (0.75 mg/kg, 1.0 ml/kg, i.p.) from saline. In the third cohort, rats (n = 16) were trained to discriminate the training drug cocaine (5 mg/kg, 1.0 ml/kg, i.p.) from saline. Two rats in the lorcaserin–saline cohort were excluded from the present study due to failure to maintain the discrimination. Rats in the WAY163909–saline cohort also participated in additional studies ([Wild et al., 2018]); the WAY163909 dose–response curve was reevaluated between studies; a washout period was allowed, and no carryover effects were observed.
(§4) During this phase, only the stimulus-appropriate (drug or saline) lever was present. Training began under a fixed ratio 1 (FR 1) schedule of water reinforcement, and the FR requirement was incremented until all animals were responding reliably under an FR 20 schedule for each experimental condition. For half of the rats, left lever responses were reinforced after training drug administration, whereas right lever responses were reinforced after saline administration; conditions were reversed for the remaining animals. During this phase of training, drug and saline were administered irregularly with the restriction that neither condition prevailed for more than three consecutive sessions.
(§5) After responding stabilized, both levers were presented simultaneously during 15-min training sessions. The rats were required to respond on the stimulus-appropriate (correct) lever to obtain water reinforcement. There were no programmed consequences for responding on the incorrect lever. This phase of training continued until the performance of all rats attained criterion (defined as mean accuracies of at least 80% stimulus-appropriate responding for 10 consecutive sessions).
(§6) Test sessions were initiated and conducted once or twice per week following attainment of criterion. Training sessions were run during the intervening days to maintain discrimination accuracy. […]

[2] = system: lorcaserin–saline-trained rats; assay: Two-lever drug discrimination, lorcaserin (0.75 mg/kg) vs saline; format: in vivo, rat
Protocol: as §1, §2, §3, §4, §5, §6

[3] = system: WAY163909–saline-trained rats; assay: Two-lever drug discrimination, WAY163909 (0.75 mg/kg) vs saline; format: in vivo, rat
Protocol: as §1, §2, §3, §4, §5, §6

[4] = system: PTEN; assay: PTEN lipid phosphatase activity assay (competitive ELISA for PI(4,5)P2); format: biochemical; details: 15 min preincubation 37°C with 1 ng/µl PTEN, then 4 µM PI(3,4,5)P3 2.25 h, two independent experiments in triplicate
Protocol: Lipid phosphatase activity of PTEN was quantified using a PTEN activity ELISA kit (K-4700, Echelon Biosciences, Salt Lake City, UT) following the manufacturer’s protocol. Briefly, 1 ng/µl PTEN enzyme (E-3000, Echelon Bioscience) was incubated with PTEN inhibitor SF1670 (200 µM), 1, 2, and 2 derivatives (10 µM) for 15 min at 37°C. Then, PI(3,4,5)P3 substrate was added for a final concentration of 4 µM, and the reaction was incubated at 37°C for 2.25 h. The lipid phosphatase activity of PTEN was quantified by measuring the amount of PI(4,5)P2 by competitive ELISA in which final absorbance is inversely related to the amount of PI(4,5)P2. The absorbance was measured by FlexStation3 at 450 nm (Molecular Devices). Results are represented as fold change over PTEN + PI(3,4,5)P3 alone (mean ± SD) of two independent experiments run in technical triplicates and analyzed by one-way ANOVA with a priori comparison with PTEN + PI(3,4,5)P3 alone (Dunnett’s; GraphPad Prism 7.02). All statistical analyses were conducted with an experiment-wise error rate of α = 0.05.

[5] = system: human unedited 5-HT2CR (h5-HT2CR-CHO cells); format: cell-based; details: for EMAX (%5-HT): maximum 5-HT-induced Cai2+ release in presence of 1 nM peptide derivative, 5-HT vehicle, 10^-11 to 10^-6 M, 5-HT alone = 100%, AUC normalised to crystal violet, mean ± SEM of 4–5 biological replicates, SEM; for change of 5-HT EC50 / potency versus 5-HT alone: pretreatment with 1 nM peptide; for elevation of the maximum Cai2+ release induced by 5-HT: pretreatment with peptide (1 nM), p < 0.05
[6] = system: human unedited 5-HT2CR (h5-HT2CR-CHO cells); details: ref Anastasio et al., 2013; cited from earlier work
Source text: Agonist binding to the 5-HT2CR results in dynamic changes in receptor conformation and induction of a variety of intracellular signaling pathways ([Berg et al., 1994]; [McGrew et al., 2002]; [Werry et al., 2005]; [Labasque et al., 2008]). Best characterized is coupling of the 5-HT2CR to Gαq/11 proteins to activate phospholipase Cβ (PLCβ), resulting in increased intracellular calcium (Cai ^2+) release, among various other signaling outcomes ([Millan et al., 2008]). One approach to selectively target the 5-HT2CR signaling is through protein–protein interactions that are selective for 5-HT2CR ove ...

[7] = vs previous cocaine maintenance session, lorcaserin 1 mg/kg, p < 0.05

In the case of `COC(=O)[C@H]1[C@@H](OC(=O)c2ccccc2)C[C@@H]2CC[C@H]1N2C` [cocaine], the “cocaine-lever responding in substitution test” value ([1]; lorcaserin 1 mg/kg) is reported as “full substitution” and the “response rates after training drug” value ([1]; training sessions, cocaine 5 mg/kg i.p., not statistically different from saline) is reported as 25.6 ± 0.55 min⁻¹.

In the case of `Cc1cc2c(cc1Cl)N(C(=O)Nc1ccc(Oc3cccnc3C)nc1)CC2` [SB242084], the “lorcaserin (1 mg/kg)-mediated suppression of cocaine (2.5 mg/kg) lever responding and response rate after SB242084 pretreatment” value ([1]; SB242084 0.5 mg/kg + lorcaserin 1 mg/kg + cocaine 2.5 mg/kg) is reported as “fully recovered”, the “cocaine-lever responding, pretreatment before cocaine (2.5 mg/kg)” value ([1]; combination test) is reported as “did not alter cocaine lever-responding or response rate” and the “cocaine-lever responding in substitution test” value ([1]; lorcaserin 1 mg/kg) is reported as “engendered primarily saline-lever responding”. For the same molecule, the “response rate in substitution test” value [1, 7] was “slight but significant increase in response rate”.

For `C[C@H]1CNCCc2ccc(Cl)cc21` [lorcaserin, (1R)-8-chloro-2,3,4,5-tetrahydro-1-methyl-1H-3 benzazepine], the ED50 ([2]; Rattus norvegicus, read-out: ED50 (dose predicted to elicit 50% lorcaserin-lever responding)) was 0.54 mg/kg, the “response rates after training drug versus saline” value ([2]; training sessions, lorcaserin 0.75 mg/kg i.p., p < 0.05) was “lower than rates after saline” and the “response rate in substitution test” value ([3]; lorcaserin 1 mg/kg (vs saline), TAT-r3L4F 1, 2 µmol/kg (vs previous WAY163909 maintenance session)) was “suppressed response rates versus saline”. The “substitution for WAY163909” value ([3]; substitution test, lorcaserin 1 mg/kg i.p.) was “full substitution”, the “lever responding in substitution test (low-dose series)” value ([1]; TAT-r3L4F alone 1, 2 µmol/kg, lorcaserin alone 0.5 mg/kg, data not shown) was “saline-appropriate responding” and the “full substitution evoked by cocaine (2.5 mg/kg) after lorcaserin (0.5 mg/kg) alone” value ([1]; combination test, lorcaserin 0.5 mg/kg + cocaine 2.5 mg/kg) was “not suppressed”. For the same molecule, the “cocaine-lever responding, pretreatment before cocaine (2.5 mg/kg)” value ([1]; combination test) was “significantly reduced cocaine lever-appropriate responding”, the “response rate, pretreatment before cocaine (2.5 mg/kg)” value ([1]; combination test, lorcaserin 1 mg/kg, p < 0.05) was “significantly reduced” and the “behavioral disruption (failure to complete FR 20)” value ([1]; lorcaserin 1 mg/kg i.p. alone, two rats failed to complete the FR 20 schedule) was “induces behavioral disruption”. For the same molecule, the “cocaine-lever responding in substitution test” value ([1]; lorcaserin 1 mg/kg) was “engendered primarily saline-lever responding”, the “response rates associated with cocaine (2.5 mg/kg)” value ([1]; lorcaserin alone 0.5 mg/kg, or TAT-r3L4F 1, 2 µmol/kg plus lorcaserin 0.5 mg/kg, p < 0.05) was “significantly suppressed the response rates” and the “response rate in substitution test (low-dose series)” value ([1]; vs previous cocaine maintenance session, TAT-r3L4F alone 1, 2 µmol/kg, lorcaserin alone 0.5 mg/kg, data not shown) was “significant reduction in response rates”. The “response rate in substitution test” value [1, 7] was “significant reduction in response rate”.

In the case of `CC(C)(C)C(=O)Nc1ccc2c(c1)C(=O)C(=O)c1ccccc1-2` [SF1670], the “PTEN lipid phosphatase activity” value ([4]; 200 µM inhibitor) is reported as “suppresses PTEN lipid phosphatase activity”.

With `c1cc2c3c(c1)[C@H]1CCC[C@H]1N3CCNC2` [WAY163909, (7b-R,10a-R)-1,2,3,4,8,9,10,10a-octahydro-7bH-cyclopenta[b][1,4] diazepino [6,7,1hi] indole] the substitution for lorcaserin ([2]; substitution test, WAY163909 0.75 mg/kg i.p., full substitution = ≥80% drug-appropriate responding) was “full substitution”, the “response rate in substitution test” value ([2]; vs previous lorcaserin maintenance session, WAY163909 0.75 mg/kg, TAT-r3L4F 2 µmol/kg (trend for 1 µmol/kg)) was “suppressed response rates similar to the training drug” and the “ED50 (WAY163909-lever responding)” value ([3]; i.p., 15 min before test, 95% CI 0.51–0.61 mg/kg) was 0.56 mg/kg. For the same molecule, the “response rates after training drug versus saline” value ([3]; training sessions, WAY163909 0.75 mg/kg i.p., p < 0.05) was “lower than rates after saline”.

In the case of “Ac-PNQDQNAR-NH2 [compound 2, shorter eight amino acid version of h3L4F]”, the “EMAX (%5-HT)” value [5] is reported as 118 ± 4.0%, the “change of 5-HT EC50 / potency versus 5-HT alone” value [5] is reported as “no change in EC50” and the “elevation of the maximum Cai2+ release induced by 5-HT” value [5] is reported as about 20%. For the same molecule, the “effect on 5-HT2CR agonist-mediated Cai2+ release” value [6] was “enhance” and the “PTEN lipid phosphatase activity” value ([4]; 10 µM peptide) was “do not suppress PTEN lipid phosphatase activity”.

With “Ac-PNQDQNARRRKKKERR-NH2 [h3L4F, 16 amino acid peptide homologous to a fragment of the third intracellular loop of the human 5-HT2CR]” the “EMAX (%5-HT)” value [5] was 131 ± 6.3%, the “change of 5-HT EC50 / potency versus 5-HT alone” value [5] was “no change in EC50” and the “elevation of the maximum Cai2+ release induced by 5-HT” value [5] was about 30%. The “effect on 5-HT2CR agonist-mediated Cai2+ release” value [6] was “enhance” and the “PTEN lipid phosphatase activity” value ([4]; 10 µM peptide) was “do not suppress PTEN lipid phosphatase activity”.

In the case of “(S)-1-((S)-4-amino-2-((3S,4S)-4-((S)-1-((S)-1-carboxy-4-guanidinobutylamino)-1-oxo-propan-2-ylcarbamoyl)pyrrolidine-3-carboxamido)-4-oxobutanoyl)pyrrolidine-2-carboxylic acid [compound 7]”, the “drug-lever responding in combination with lorcaserin (0.5 mg/kg)” value ([2]; combination test, i.p., TAT-r3L4F 2 µmol/kg (p < 0.05), peptide 7 2, 5 µmol/kg) is reported as “modestly, but not significantly, enhanced”, the “response rate in combination with lorcaserin (0.5 mg/kg)” value ([2]; combination test, i.p., TAT-r3L4F 2 µmol/kg, peptide 7 2, 5 µmol/kg) is reported as “no change in rate” and the drug-like responding ([2]; substitution test, i.p., TAT-r3L4F 1, 2 µmol/kg, peptide 7 1, 2, 5 µmol/kg (data not shown)) is reported as under 20%. For the same molecule, the “potentiation of 5-HT-induced Cai2+ release (in words)” value ([5]; 1 nM peptide, Welch's t-test vs 5-HT alone, α = 0.05) was “potentiated” and the “EMAX (%5-HT)” value [5] was 125 ± 5.2%.
